For 6 compounds, EC50 results are on record in US9409966B2, “Glucagon-like peptide-1 derivatives and their pharmaceutical use” (priority 2007, dated 2016).

In assay [1] the target is human serum albumin (HSA) (Homo sapiens, UniProt P02768). The experiment in a line: Albumin binding affinity, competition scintillation proximity assay (SPA).
Description: Streptavidin-SPA beads (GE Healthcare RPNQ0009) were incubated with biotinylated HSA for 5 hours. The beads were washed with buffer to remove unbound HSA. […] After 20 hours of gentle rocking at room temperature the plates were centrifuged and counted on a TopCounter.
The target in another assay is T1, human GLP-1 receptor (Homo sapiens, UniProt P43220).
T1 construct: expressed in transfected cells; host or cells: BHK467-12A (tk-ts13) baby hamster kidney cells; purified plasma membranes
T1 sequence (P43220 24-463): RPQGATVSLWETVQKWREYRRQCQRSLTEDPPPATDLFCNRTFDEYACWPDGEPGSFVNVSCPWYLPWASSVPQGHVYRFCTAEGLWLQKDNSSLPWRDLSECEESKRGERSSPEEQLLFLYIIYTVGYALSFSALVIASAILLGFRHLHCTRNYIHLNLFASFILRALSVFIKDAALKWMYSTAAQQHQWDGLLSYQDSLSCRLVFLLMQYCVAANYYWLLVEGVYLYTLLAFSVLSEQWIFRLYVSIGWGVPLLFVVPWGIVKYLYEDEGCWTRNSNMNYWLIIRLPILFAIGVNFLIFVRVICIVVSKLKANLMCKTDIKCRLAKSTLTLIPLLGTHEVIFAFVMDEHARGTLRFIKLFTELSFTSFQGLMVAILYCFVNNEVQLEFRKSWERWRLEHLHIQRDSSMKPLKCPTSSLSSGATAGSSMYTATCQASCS
Kind of assay: Stimulation of cAMP formation in a cell line expressing the cloned human GLP-1 receptor. The following applies: cAMP production, purified plasma membranes from BHK467-12A (tk-ts13), AlphaScreen cAMP Assay Kit; read-out: Potency [EC50/nM]. It counts as biochemical.

*1 amine or outer side, *2 acyl side, *3 side chain or, on linkers, in order; H or OH if unused. Where a SMILES comes first, the peptide text is derived from it. Side-chain parts run from the residue outwards. [ ]: non-standard residue; d: D form. The star is where a group is joined. X1 = O=C(CCCCCCCCCCCCCCCc1nnn[nH]1)NS(=O)(=O)CCCC(=O)*; C20 diacid = O=C(O)CCCCCCCCCCCCCCCCCCC(=O)*; γGlu = O=C(O)[C@H](CCC(=O)[*:2])N[*:1]; βAsp = O=C(O)[C@H](CC(=O)[*:2])N[*:1]; 12Ado = NCCCCCCCCCCCC(=O)O; AEEA = NCCOCCOCC(=O)O; Aib = CC(C)(N)C(=O)O; Inp = O=C(O)C1CCNCC1

Chain of human serum albumin (HSA) (P02768 25-609): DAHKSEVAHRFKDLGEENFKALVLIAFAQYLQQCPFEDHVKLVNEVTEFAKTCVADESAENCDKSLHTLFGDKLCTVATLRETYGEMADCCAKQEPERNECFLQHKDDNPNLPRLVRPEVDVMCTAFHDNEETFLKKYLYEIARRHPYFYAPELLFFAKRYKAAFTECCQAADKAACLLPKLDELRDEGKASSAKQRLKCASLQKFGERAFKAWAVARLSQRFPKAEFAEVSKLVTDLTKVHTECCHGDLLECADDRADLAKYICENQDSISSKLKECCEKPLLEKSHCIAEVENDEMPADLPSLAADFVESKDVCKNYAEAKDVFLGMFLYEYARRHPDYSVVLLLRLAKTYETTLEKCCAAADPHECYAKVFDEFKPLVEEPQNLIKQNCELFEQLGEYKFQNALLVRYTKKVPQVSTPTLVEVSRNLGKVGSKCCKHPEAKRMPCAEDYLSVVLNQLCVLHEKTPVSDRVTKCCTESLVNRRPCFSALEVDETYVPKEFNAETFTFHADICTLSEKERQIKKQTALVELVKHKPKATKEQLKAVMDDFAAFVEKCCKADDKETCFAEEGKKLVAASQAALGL
Description for human GLP-1 receptor: A stable transfected cell line has been prepared at NN A/S, Denmark, and a high expressing clone was selected for screening. The cells were grown at 5% CO2 in DMEM, 5% FCS, 1% Pen/Strep (Penicillin/Streptomycin) and 0.5 mg/ml of the selection marker G418.
Cells at approximate 80% confluence were washed 2× with PBS (Phosphate Buffered Saline) and harvested with Versene (aqueous solution of the tetrasodium salt of ethylenediaminetetraacetic acid), centrifuged 5 min at 1000 rpm and the supernatant removed. The additional steps were all made on ice. […] Suspension in Buffer 2, homogenization and centrifugation was repeated once and the membranes were resuspended in Buffer 2 and ready for further analysis or stored at −80° C.
The functional receptor assay was carried out by measuring the peptide induced cAMP production by The AlphaScreen Technology. […] The capture of cAMP is achieved by using a specific antibody conjugated to acceptor beads. Formed cAMP was counted and measured at a AlphaFusion Microplate Analyzer. The EC50 values were calculated using the Graph-Pad Prisme software (version 5).

For `CC[C@H](C)[C@H](NC(=O)[C@H](Cc1ccccc1)NC(=O)[C@H](CCC(=O)O)NC(=O)[C@H](CCCNC(=N)N)NC(=O)[C@H](C)NC(=O)[C@H](C)NC(=O)[C@H](CCC(N)=O)NC(=O)[C@H](CCC(=O)O)NC(=O)[C@H](CCC(=O)O)NC(=O)[C@H](CC(C)C)NC(=O)[C@H](Cc1ccc(O)cc1)NC(=O)[C@H](CO)NC(=O)[C@H](CO)NC(=O)[C@@H](NC(=O)[C@H](CC(=O)O)NC(=O)[C@H](CO)NC(=O)[C@@H](NC(=O)[C@H](Cc1ccccc1)NC(=O)[C@@H](NC(=O)CNC(=O)[C@H](CCC(=O)O)NC(=O)C(C)(C)NC(=O)[C@@H](N)Cc1c[nH]cn1)[C@@H](C)O)[C@@H](C)O)C(C)C)C(=O)N[C@@H](C)C(=O)N[C@@H](CCCCNC(=O)COCCOCCNC(=O)COCCOCCNC(=O)C[C@H](NC(=O)C1CCN(C(=O)CCCCCCCCCCCCCCCCCCC(=O)O)CC1)C(=O)O)C(=O)N[C@@H](CC(C)C)C(=O)N[C@H](C(=O)N[C@@H](CCCCN)C(=O)NCC(=O)N[C@@H](CCCNC(=N)N)C(=O)NCC(=O)O)C(C)C` [Example 5, N-epsilon31{2-[2-(2-{2-[2-((S)-3-carboxy-3-{[1-(19-carboxynonadecanoyl)piperidine-4-carbonyl]amino}propionylamino)ethoxy]ethoxy}acetylamino)ethoxy]ethoxy}acetyl [Aib8,Glu22,Arg26,Lys31]GLP-1-(7-37)] (H-H[Aib]EGTFTSDVSSYLEEQAAREFIAK([AEEA-AEEA-βAsp-Inp-C20 diacid])LVKGRG-OH), the figures for the EC50 (in assay [1]; on human GLP-1 receptor) were 100 to 150 nM and 0.2 nM, respectively.

Consider `CC[C@H](C)[C@H](NC(=O)[C@H](Cc1ccccc1)NC(=O)[C@H](CCC(=O)O)NC(=O)[C@H](CCCNC(=N)N)NC(=O)[C@H](C)NC(=O)[C@H](C)NC(=O)[C@H](CCC(N)=O)NC(=O)[C@H](CCC(=O)O)NC(=O)[C@H](CCC(=O)O)NC(=O)[C@H](CC(C)C)NC(=O)[C@H](Cc1ccc(O)cc1)NC(=O)[C@H](CO)NC(=O)[C@H](CO)NC(=O)[C@@H](NC(=O)[C@H](CC(=O)O)NC(=O)[C@H](CO)NC(=O)[C@@H](NC(=O)[C@H](Cc1ccccc1)NC(=O)[C@@H](NC(=O)CNC(=O)[C@H](CCC(=O)O)NC(=O)C(C)(C)NC(=O)[C@@H](N)Cc1c[nH]cn1)[C@@H](C)O)[C@@H](C)O)C(C)C)C(=O)N[C@@H](C)C(=O)N[C@@H](Cc1c[nH]c2ccccc12)C(=O)N[C@@H](CC(C)C)C(=O)N[C@H](C(=O)N[C@@H](CCCNC(=N)N)C(=O)NCC(=O)N[C@@H](CCCNC(=N)N)C(=O)N[C@@H](CCCCNC(=O)COCCOCCNC(=O)COCCOCCNC(=O)CC[C@H](NC(=O)[C@H]1CC[C@H](CNC(=O)CCCCCCCCCCCCCCCCCCC(=O)O)CC1)C(=O)O)C(N)=O)C(C)C` [Example 7, N-epsilon37-[2-(2-{2-[2-(2-{2-[(S)-4-Carboxy-4-({trans-4-[(19-carboxy-nonadecanoylamino)methyl]cyclohexanecarbonyl}amino)butyrylamino]ethoxy}ethoxy)acetylamino]ethoxy}ethoxy)acetyl][Aib8,Glu22,Arg26,Arg34,Lys37]GLP-1-(7-37)amide], for which the EC50 in assay [1] is 800 to 1500 nM; on human GLP-1 receptor, 0.58 nM.

Turning to `CC[C@H](C)[C@H](NC(=O)[C@H](Cc1ccccc1)NC(=O)[C@H](CCC(=O)O)NC(=O)[C@H](CCCNC(=N)N)NC(=O)[C@H](C)NC(=O)[C@H](C)NC(=O)[C@H](CCC(N)=O)NC(=O)[C@H](CCC(=O)O)NC(=O)[C@H](CCC(=O)O)NC(=O)[C@H](CC(C)C)NC(=O)[C@H](Cc1ccc(O)cc1)NC(=O)[C@H](CO)NC(=O)[C@H](CO)NC(=O)[C@@H](NC(=O)[C@H](CC(=O)O)NC(=O)[C@H](CO)NC(=O)[C@@H](NC(=O)[C@H](Cc1ccccc1)NC(=O)[C@@H](NC(=O)CNC(=O)[C@H](CCC(=O)O)NC(=O)[C@H](C)NC(=O)CCc1c[nH]cn1)[C@@H](C)O)[C@@H](C)O)C(C)C)C(=O)N[C@@H](C)C(=O)N[C@@H](Cc1c[nH]c2ccccc12)C(=O)N[C@@H](CC(C)C)C(=O)N[C@H](C(=O)N[C@@H](CCCNC(=N)N)C(=O)NCC(=O)N[C@@H](CCCNC(=N)N)C(=O)N[C@@H](CCCCNC(=O)COCCOCCNC(=O)COCCOCCNC(=O)CC[C@H](NC(=O)[C@H]1CC[C@H](CNC(=O)CCCCCCCCCCCCCCCCCCC(=O)O)CC1)C(=O)O)C(N)=O)C(C)C` [Example 8, N-epsilon37-[2-(2-{2-[2-(2-{2-[(S)-4-Carboxy-4-({trans-4-[(19-carboxy-nonadecanoylamino)methyl]cyclohexanecarbonyl}amino)butyrylamino]ethoxy}ethoxy)acetylamino]ethoxy}ethoxy)acetyl][DesaminoHis7,Glu22,Arg26,Arg34,Lys37]GLP-1-(7-37)amide], the EC50 in assay [1] is 1500 to 2000 nM; at human GLP-1 receptor, 0.66 nM.

For `CC[C@H](C)[C@H](NC(=O)[C@H](Cc1ccccc1)NC(=O)[C@H](CCC(=O)O)NC(=O)[C@H](CCCNC(=N)N)NC(=O)[C@H](C)NC(=O)[C@H](C)NC(=O)[C@H](CCC(N)=O)NC(=O)[C@H](CCC(=O)O)NC(=O)[C@H](CCC(=O)O)NC(=O)[C@H](CC(C)C)NC(=O)[C@H](Cc1ccc(O)cc1)NC(=O)[C@H](CO)NC(=O)[C@H](CO)NC(=O)[C@@H](NC(=O)[C@H](CC(=O)O)NC(=O)[C@H](CO)NC(=O)[C@@H](NC(=O)[C@H](Cc1ccccc1)NC(=O)[C@@H](NC(=O)CNC(=O)[C@H](CCC(=O)O)NC(=O)[C@H](C)NC(=O)CCc1c[nH]cn1)[C@@H](C)O)[C@@H](C)O)C(C)C)C(=O)N[C@@H](C)C(=O)N[C@@H](Cc1c[nH]c2ccccc12)C(=O)N[C@@H](CC(C)C)C(=O)N[C@H](C(=O)N[C@@H](CCCNC(=N)N)C(=O)NCC(=O)N[C@@H](CCCNC(=N)N)C(=O)N[C@@H](CCCCNC(=O)COCCOCCNC(=O)COCCOCCNC(=O)CC[C@H](NC(=O)[C@H]1CC[C@H](CNC(=O)CCCCCCCCCCCCCCCCCCC(=O)O)CC1)C(=O)O)C(=O)O)C(C)C` [Example 9, N-epsilon37-[2-(2-{2-[2-(2-{2-[(S)-4-Carboxy-4-({trans-4-[(19-carboxy-nonadecanoylamino)methyl]cyclohexanecarbonyl}amino)butyrylamino]ethoxy}ethoxy)acetylamino]ethoxy}ethoxy)acetyl][DesaminoHis7,Glu22,Arg26,Arg34,Lys37]GLP-1-(7-37)], the EC50 in assay [1] was 800 to 1500 nM; on human GLP-1 receptor, 0.5 nM.

On to `CC[C@H](C)[C@H](NC(=O)[C@H](Cc1ccccc1)NC(=O)[C@H](CCC(=O)O)NC(=O)[C@H](CCCNC(=N)N)NC(=O)[C@H](C)NC(=O)[C@H](C)NC(=O)[C@H](CCC(N)=O)NC(=O)[C@H](CCC(=O)O)NC(=O)[C@H](CCC(=O)O)NC(=O)[C@H](CCCCNC(=O)COCCOCCNC(=O)CC[C@H](NC(=O)CC[C@H](NC(=O)CCCCCCCCCCCNC(=O)CCCS(=O)(=O)NC(=O)CCCCCCCCCCCCCCCc1nnn[nH]1)C(=O)O)C(=O)O)NC(=O)[C@H](Cc1ccc(O)cc1)NC(=O)[C@H](CO)NC(=O)[C@H](CO)NC(=O)[C@@H](NC(=O)[C@H](CC(=O)O)NC(=O)[C@H](CO)NC(=O)[C@@H](NC(=O)[C@H](Cc1ccccc1)NC(=O)[C@@H](NC(=O)CNC(=O)[C@H](CCC(=O)O)NC(=O)C(C)(C)NC(=O)[C@@H](N)Cc1c[nH]cn1)[C@@H](C)O)[C@@H](C)O)C(C)C)C(=O)N[C@@H](CCC(=O)O)C(=O)N[C@@H](Cc1c[nH]c2ccccc12)C(=O)N[C@@H](CC(C)C)C(=O)N[C@H](C(=O)N[C@@H](CCCCN)C(=O)NCC(=O)N[C@@H](CCCNC(=N)N)C(=O)N1CCC[C@H]1C(N)=O)C(C)C` [Example 11, N-epsilon20-[2-(2-{2-[(S)-4-Carboxy-4-((S)-4-carboxy-4-{12-[4-(16-(1H-tetrazol-5-yl)hexadecanoylsulfamoyl)butyrylamino]dodecanoylamino}butyrylamino)butyrylamino]ethoxy}ethoxy)acetyl][Aib8,Lys20,Glu22,Arg26,Glu30,Pro37]GLP-1-(7-37)amide] (H-H[Aib]EGTFTSDVSSYK([AEEA-γGlu-γGlu-12Ado-X1])EEQAAREFIEWLVKGRP-NH2), for which the EC50 in assay [1] is 1 to 100 nM; at human GLP-1 receptor it was 0.61 nM.

As for `CC[C@H](C)[C@H](NC(=O)[C@H](Cc1ccccc1)NC(=O)[C@H](CCC(=O)O)NC(=O)[C@H](CCCNC(=N)N)NC(=O)[C@H](C)NC(=O)[C@H](C)NC(=O)[C@H](CCC(N)=O)NC(=O)[C@H](CCC(=O)O)NC(=O)[C@H](CCC(=O)O)NC(=O)[C@H](CC(C)C)NC(=O)[C@H](Cc1ccc(O)cc1)NC(=O)[C@H](CO)NC(=O)[C@H](CO)NC(=O)[C@@H](NC(=O)[C@H](CC(=O)O)NC(=O)[C@H](CO)NC(=O)[C@@H](NC(=O)[C@H](Cc1ccccc1)NC(=O)[C@@H](NC(=O)CNC(=O)[C@H](CCC(=O)O)NC(=O)C(C)(C)NC(=O)[C@@H](N)Cc1c[nH]cn1)[C@@H](C)O)[C@@H](C)O)C(C)C)C(=O)N[C@@H](C)C(=O)N[C@@H](Cc1c[nH]c2ccccc12)C(=O)N[C@@H](CC(C)C)C(=O)N[C@H](C(=O)N[C@@H](CCCNC(=N)N)C(=O)NCC(=O)N[C@@H](CCCNC(=N)N)C(=O)N[C@@H](CCCCNC(=O)COCCOCCNC(=O)CC[C@H](NC(=O)CC[C@H](NC(=O)CCCCCCCCCCCNC(=O)CCCS(=O)(=O)NC(=O)CCCCCCCCCCCCCCCc1nnn[nH]1)C(=O)O)C(=O)O)C(N)=O)C(C)C` [Example 12, N-epsilon37-[2-(2-{2-[(S)-4-Carboxy-4-((S)-4-carboxy-4-{12-[4-(16-(1H-tetrazol-5-yl)hexadecanoylsulfamoyl)butyrylamino]dodecanoylamino}butyrylamino)butyrylamino]ethoxy}ethoxy)acetyl][Aib8,Glu22,Arg26,Arg34,Lys37]GLP-1-(7-37)amide], the EC50 in assay [1] was 800 to 1500 nM; at human GLP-1 receptor, 1.8 nM.
